Columns and labels:
Tyk2 = Tyk2 (Homo sapiens (Human), UniProt P29597); test: pSTAT4 Cell Assay (MSD, NK92 cells); format: cell-based; settings: MSD
JH2 domain of human Tyk2 = JH2 domain of human Tyk2 (Homo sapiens (Human), UniProt P29597); test: JH2 Biochemical Assay (TR-FRET probe displacement); format: binding; settings: TR-FRET probe displacement, JH2 domain of human Tyk2
JH2 domain of human Tyk2, sequence (P29597 575-876): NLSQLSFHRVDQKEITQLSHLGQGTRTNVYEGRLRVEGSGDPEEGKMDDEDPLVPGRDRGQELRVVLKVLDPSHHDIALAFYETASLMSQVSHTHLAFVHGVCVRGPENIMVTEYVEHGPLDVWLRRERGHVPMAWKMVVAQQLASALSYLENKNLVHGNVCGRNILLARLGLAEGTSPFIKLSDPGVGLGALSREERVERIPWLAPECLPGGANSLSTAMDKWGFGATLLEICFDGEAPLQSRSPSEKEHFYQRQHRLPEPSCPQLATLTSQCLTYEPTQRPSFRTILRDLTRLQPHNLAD

Tyk2, sequence (P29597 whole entry, the tested form may be a part): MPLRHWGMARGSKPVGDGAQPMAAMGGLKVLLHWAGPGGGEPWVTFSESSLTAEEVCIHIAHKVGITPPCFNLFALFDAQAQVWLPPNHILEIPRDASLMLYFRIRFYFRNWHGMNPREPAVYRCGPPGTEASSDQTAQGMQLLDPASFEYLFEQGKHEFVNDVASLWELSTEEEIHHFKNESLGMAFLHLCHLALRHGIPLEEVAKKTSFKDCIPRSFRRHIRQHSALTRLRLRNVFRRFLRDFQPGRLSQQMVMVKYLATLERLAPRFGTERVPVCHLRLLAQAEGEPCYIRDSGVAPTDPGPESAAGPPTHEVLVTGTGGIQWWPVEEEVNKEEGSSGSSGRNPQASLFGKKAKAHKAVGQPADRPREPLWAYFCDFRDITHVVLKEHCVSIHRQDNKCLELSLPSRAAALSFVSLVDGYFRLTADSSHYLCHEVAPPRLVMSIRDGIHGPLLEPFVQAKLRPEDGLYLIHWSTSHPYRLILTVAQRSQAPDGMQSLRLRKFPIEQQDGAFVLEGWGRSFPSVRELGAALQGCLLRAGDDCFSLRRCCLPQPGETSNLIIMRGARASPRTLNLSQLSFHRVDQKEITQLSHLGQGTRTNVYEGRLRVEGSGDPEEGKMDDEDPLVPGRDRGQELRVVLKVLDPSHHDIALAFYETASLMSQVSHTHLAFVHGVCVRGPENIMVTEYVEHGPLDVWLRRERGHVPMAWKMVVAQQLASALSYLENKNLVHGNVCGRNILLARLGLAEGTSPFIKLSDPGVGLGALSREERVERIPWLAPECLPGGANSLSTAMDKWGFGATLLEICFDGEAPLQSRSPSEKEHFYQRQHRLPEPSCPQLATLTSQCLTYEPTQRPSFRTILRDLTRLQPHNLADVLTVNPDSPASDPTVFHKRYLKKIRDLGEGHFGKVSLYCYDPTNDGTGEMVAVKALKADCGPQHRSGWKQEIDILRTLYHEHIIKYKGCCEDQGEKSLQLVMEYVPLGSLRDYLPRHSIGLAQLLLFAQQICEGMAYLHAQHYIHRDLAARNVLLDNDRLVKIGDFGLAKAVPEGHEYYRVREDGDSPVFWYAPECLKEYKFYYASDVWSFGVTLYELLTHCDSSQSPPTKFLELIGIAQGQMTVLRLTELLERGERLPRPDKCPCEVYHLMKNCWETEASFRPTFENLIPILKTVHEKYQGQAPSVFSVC

Structure (SMILES)	IC50 (Tyk2)	IC50 (JH2 domain of human Tyk2)
CC(=O)Nc1cc(Nc2ccnc(C(C)(F)F)n2)c(-c2ccnc(C)n2)cn1 [Example 173, N-(4-((2-(1,1-difluoroethyl)pyrimidin-4-yl)amino)-5-(2-methylpyrimidin-4-yl)pyridin-2-yl)acetamide]	≤ 0.01 µM	≤ 0.01 µM
CC(=O)Nc1cc(Nc2cc(C)nc(C(C)(F)F)n2)c(-c2ccnc(C)n2)cn1 [Example 174, N-(4-((2-(1,1-difluoroethyl)-6-methylpyrimidin-4-yl)amino)-5-(2-methylpyrimidin-4-yl)pyridin-2-yl)acetamide]	≤ 0.01 µM	≤ 0.01 µM
CC(=O)Nc1cc(Nc2cc(C)nc(C(C)(C)F)n2)c(-c2ccnc(C)n2)cn1 [Example 176, N-(4-((2-(2-fluoropropan-2-yl)-6-methylpyrimidin-4-yl)amino)-5-(2-methylpyrimidin-4-yl)pyridin-2-yl)acetamide]	≤ 0.01 µM	≤ 0.01 µM
COc1nccc(-c2cnc(NC(C)=O)cc2Nc2cccc(C(C)(F)F)n2)n1 [Example 177, N-(4-((6-(1,1-difluoroethyl)pyridin-2-yl)amino)-5-(2-methoxypyrimidin-4-yl)pyridin-2-yl)acetamide]	≤ 0.01 µM	≤ 0.01 µM
COc1nccc(-c2cnc(NC(C)=O)cc2Nc2ccnc(C(C)(F)F)n2)n1 [Example 178, N-(4-((2-(1,1-difluoroethyl)pyrimidin-4-yl)amino)-5-(2-methoxypyrimidin-4-yl)pyridin-2-yl)acetamide]	≤ 0.01 µM	≤ 0.01 µM
COc1nccc(-c2cnc(NC(C)=O)cc2Nc2cc(C)nc(C(C)(F)F)n2)n1 [Example 179, N-(4-((2-(1,1-difluoroethyl)-6-methylpyrimidin-4-yl)amino)-5-(2-methoxypyrimidin-4-yl)pyridin-2-yl)acetamide]	≤ 0.01 µM	≤ 0.01 µM
COc1nccc(-c2cnc(NC(C)=O)cc2Nc2ccnc(C(C)(C)F)n2)n1 [Example 180, N-(4-((2-(2-fluoropropan-2-yl)pyrimidin-4-yl)amino)-5-(2-methoxypyrimidin-4-yl)pyridin-2-yl)acetamide]	≤ 0.01 µM	≤ 0.01 µM
COc1nccc(-c2cnc(NC(C)=O)cc2Nc2cc(C)nc(C(C)(C)F)n2)n1 [Example 181, N-(4-((2-(2-fluoropropan-2-yl)-6-methylpyrimidin-4-yl)amino)-5-(2-methoxypyrimidin-4-yl)pyridin-2-yl)acetamide]	≤ 0.01 µM	≤ 0.01 µM
CCc1cc(Nc2cc(NC(C)=O)ncc2-c2ncc(F)cn2)nc(C(C)(F)F)n1 [Example 183, N-(4-((2-(1,1-difluoroethyl)-6-ethylpyrimidin-4-yl)amino)-5-(5-fluoropyrimidin-2-yl)pyridin-2-yl)acetamide]	0.01 to 0.1 µM	≤ 0.01 µM
CC(=O)Nc1cc(Nc2cc(C(C)C)nc(C(C)(F)F)n2)c(-c2ncc(F)cn2)cn1 [Example 184, N-(4-((2-(1,1-difluoroethyl)-6-isopropylpyrimidin-4-yl)amino)-5-(5-fluoropyrimidin-2-yl)pyridin-2-yl)acetamide]	0.01 to 0.1 µM	≤ 0.01 µM
CC(=O)Nc1cc(Nc2cccc(C(C)(F)F)n2)c(-c2ncc(F)cn2)cn1 [Example 186, N-(4-((6-(1,1-difluoroethyl)pyridin-2-yl)amino)-5-(5-fluoropyrimidin-2-yl)pyridin-2-yl)acetamide]	0.01 to 0.1 µM	≤ 0.01 µM
CC(=O)Nc1cc(Nc2ccnc(C(C)(F)F)c2)c(-c2ncc(F)cn2)cn1 [Example 187, N-(4-((2-(1,1-difluoroethyl)pyridin-4-yl)amino)-5-(5-fluoropyrimidin-2-yl)pyridin-2-yl)acetamide]	≥ 1 µM	0.01 to 0.1 µM
CC(=O)Nc1cc(Nc2cncc(C(C)(F)F)n2)c(-c2ncc(F)cn2)cn1 [Example 188, N-(4-((6-(1,1-difluoroethyl)pyrazin-2-yl)amino)-5-(5-fluoropyrimidin-2-yl)pyridin-2-yl)acetamide]	0.01 to 0.1 µM	≤ 0.01 µM
CC(=O)Nc1cc(Nc2cncc(C(C)(C)F)n2)c(-c2ncc(F)cn2)cn1 [Example 189, N-(4-((6-(2-fluoropropan-2-yl)pyrazin-2-yl)amino)-5-(5-fluoropyrimidin-2-yl)pyridin-2-yl)acetamide]	0.01 to 0.1 µM	0.01 to 0.1 µM
CC(=O)Nc1cc(Nc2cc(C)cc(C(C)(F)F)n2)c(-c2ncc(F)cn2)cn1 [Example 190, N-(4-((6-(1,1-difluoroethyl)-4-methylpyridin-2-yl)amino)-5-(5-fluoropyrimidin-2-yl)pyridin-2-yl)acetamide]	0.01 to 0.1 µM	≤ 0.01 µM
COc1cc(Nc2cc(NC(C)=O)ncc2-c2ncc(F)cn2)nc(C(C)(F)F)c1 [Example 191, N-(4-((6-(1,1-difluoroethyl)-4-methoxypyridin-2-yl)amino)-5-(5-fluoropyrimidin-2-yl)pyridin-2-yl)acetamide]	0.01 to 0.1 µM	≤ 0.01 µM
COc1cc(Nc2cc(NC(C)=O)ncc2-c2ncc(F)cn2)nc(C(C)(F)F)n1 [Example 192, N-(4-((2-(1,1-difluoroethyl)-6-methoxypyrimidin-4-yl)amino)-5-(5-fluoropyrimidin-2-yl)pyridin-2-yl)acetamide]	0.01 to 0.1 µM	≤ 0.01 µM
COc1cc(-c2cnc(NC(C)=O)cc2Nc2ccnc(C(C)(F)F)n2)ncn1 [Example 193, N-(4-((2-(1,1-difluoroethyl)pyrimidin-4-yl)amino)-5-(6-methoxypyrimidin-4-yl)pyridin-2-yl)acetamide]	0.01 to 0.1 µM	≤ 0.01 µM
COc1cc(-c2cnc(NC(C)=O)cc2Nc2cc(C)nc(C(C)(F)F)n2)ncn1 [Example 194, N-(4-((2-(1,1-difluoroethyl)-6-methylpyrimidin-4-yl)amino)-5-(6-methoxypyrimidin-4-yl)pyridin-2-yl)acetamide]	≤ 0.01 µM	≤ 0.01 µM
COc1cc(-c2cnc(NC(C)=O)cc2Nc2cc(C)nc(C(C)(C)F)n2)ncn1 [Example 196, N-(4-((2-(2-fluoropropan-2-yl)-6-methylpyrimidin-4-yl)amino)-5-(6-methoxypyrimidin-4-yl)pyridin-2-yl)acetamide]	0.01 to 0.1 µM	≤ 0.01 µM
CC(=O)Nc1cc(Nc2cc(C)nc(C(C)(F)F)n2)c(-c2cc(C)ncn2)cn1 [Example 197, N-(4-((2-(1,1-difluoroethyl)-6-methylpyrimidin-4-yl)amino)-5-(6-methylpyrimidin-4-yl)pyridin-2-yl)acetamide]	≤ 0.01 µM	≤ 0.01 µM
CC(=O)Nc1cc(Nc2ccnc(C(C)(C)F)n2)c(-c2cc(C)ncn2)cn1 [Example 198, N-(4-((2-(2-fluoropropan-2-yl)pyrimidin-4-yl)amino)-5-(6-methylpyrimidin-4-yl)pyridin-2-yl)acetamide]	0.01 to 0.1 µM	≤ 0.01 µM
CC(=O)Nc1cc(Nc2ccnc(C(C)(F)F)n2)c(-c2ccn(C)n2)cn1 [Example 202, N-(4-((2-(1,1-difluoroethyl)pyrimidin-4-yl)amino)-5-(1-methyl-1H-pyrazol-3-yl)pyridin-2-yl)acetamide]	≤ 0.01 µM	≤ 0.01 µM
CC(=O)Nc1cc(Nc2nccc(C(C)(F)F)n2)c(-c2ccn(C)n2)cn1 [Example 203, N-(4-((4-(1,1-difluoroethyl)pyrimidin-2-yl)amino)-5-(1-methyl-1H-pyrazol-3-yl)pyridin-2-yl)acetamide]	≤ 0.01 µM	≤ 0.01 µM

— US20260028365A1 (BIOGEN MA INC., priority 2022, published 2026)
